In US9133115B2 (ACHILLION PHARMACEUTICALS, INC., priority 2008, dated 2015):

What follows are compounds tested on HCV replicon (assay: HCV replicon replication assay (NPT ELISA) in Huh-7 replicon-containing cells). Settings: Hepatitis C virus, 72 h; HCV replicon in Huh-7 cells, three days incubation; read-out: EC50.
Assay type: cell-based
Method in brief: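 Huh-7 cells carrying a bicistronic HCV replicon (HCV-IRES-neo, EMCV-IRES-driven NS3–NS5B, 3′-NTR) were seeded at 6000-7500 cells/well, grown 24 h to 60-70% confluence, then treated with graded compound concentrations. Replication was read as NPT level by capture ELISA (rabbit anti-NPTII, Eu-N1 secondary); interferon alpha served as positive control.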

Compound | EC50 [nM]
C=CC1C[C@]1(NC(=O)[C@@H]1C[C@@H](Oc2cc(-c3ccccc3)nc3cc(OC)ccc23)CN1C(=O)[C@@H](CC(=O)N1CCN(C(=O)OC(C)(C)C)CC1)C(C)(C)C)C(=O)NS(=O)(=O)C1CC1 (stereo partly drawn) [Compound 164, tert-butyl 4-((S)-3-((2S,4R)-2-((1R,2S)-1-(cyclopropyl-sulfonylcarbamoyl)-2-vinylcyclopropyl-carbamoyl)-4-(7-methoxy-2-phenylquinolin-4-yloxy)pyrrolidine-1-carbonyl)-4,4-dime-thylpentanoyl)piper-azine-1-carboxylate] | < 1000
C=C[C@@H]1C[C@]1(NC(=O)[C@@H]1C[C@@H](Oc2cc(-c3ccccn3)nc3cc(OC)ccc23)CN1C(=O)[C@@H](CC(=O)N1CCCCC1)C(C)(C)C)C(=O)NS(=O)(=O)C1CC1 [Compound 165, (2S,4R)-1-((S)-2-tert-butyl-4-oxo-4-(piperidin-1-yl)butanoyl)-N-((1R,2S)-1-(cyclo-propylsulfonyl-carbamoyl)-2-vinyl-cyclopropyl)-4-(7-methoxy-2-(pyridin-2-yl)quinolin-4-yloxy)pyrrolidine-2-carboxamide] | < 1000
C=C[C@@H]1C[C@]1(NC(=O)[C@@H]1C[C@@H](Oc2cc(-c3ccccn3)nc3cc(OC)ccc23)CN1C(=O)[C@@H](CC(=O)N1CCOCC1)C(C)(C)C)C(=O)NS(=O)(=O)C1CC1 [Compound 166, (2S,4R)-1-((S)-2-tert-butyl-4-morpholino-4-oxobutanoyl)-N-((1R,2S)-1-(cyclopropylsulfonyl-carbamoyl)-2-vinylcyclopropyl)-4-(7-methoxy-2-(pyridin-2-yl)quinolin-4-yloxy)pyrrolidine-2-carboxamide] | < 1000
C=C[C@@H]1C[C@]1(NC(=O)[C@@H]1C[C@@H](Oc2cc(-c3ccccc3)nc3cc(OC)ccc23)CN1C(=O)[C@@H](CC(=O)N1CCC[C@H](NC(=O)OC(C)(C)C)C1)C(C)(C)C)C(=O)NS(=O)(=O)C1CC1 [Compound 167] | < 1000
C=CC1C[C@]1(NC(=O)[C@@H]1C[C@@H](Oc2cc(-c3ccccc3)nc3cc(OC)ccc23)CN1C(=O)[C@@H](CC(=O)N1CCCC(CNC(=O)OC(C)(C)C)C1)C(C)(C)C)C(=O)NS(=O)(=O)C1CC1 (stereo partly drawn) [Compound 168, tert-butyl (1-((S)-3-((2S,4R)-2-((1R,2S)-1-(cyclopropyl-sulfonylcarbamoyl)-2-vinylcyclopropyl-carbamoyl)-4-(7-methoxy-2-phenylquinolin-4-yloxy)pyrrolidine-1-carbonyl)-4,4-dime-thylpentanoyl)piper-idin-3-yl)methylcarbamate] | < 1000
C=C[C@@H]1C[C@]1(NC(=O)[C@@H]1C[C@@H](Oc2cc(-c3ccccc3)nc3cc(OC)ccc23)CN1C(=O)[C@@H](CC(=O)N1C2CCC1CC(=O)C2)C(C)(C)C)C(=O)NS(=O)(=O)C1CC1 [Compound 169, (2S,4R)-1-((2S)-2-tert-butyl-4-oxo-4-(3-oxo-8-aza-bicyclo[3.2.1]octan-8-yl)butanoyl)-N-((1R,2S)-1-(cyclopropyl-sulfonylcarbamoyl)-2-vinylcyclopropyl)-4-(7-methoxy-2-phenylquinolin-4-yloxy)pyrrolidine-2-carboxamide] | < 1000
C=C[C@@H]1C[C@]1(NC(=O)[C@@H]1C[C@@H](Oc2cc(-c3ccccc3)nc3cc(OC)ccc23)CN1C(=O)[C@@H](CC(=O)N1CC2C3CCC(C)(O3)C2C1)C(C)(C)C)C(=O)NS(=O)(=O)C1CC1 (stereo partly drawn) [Compound 170] | < 1000
C=C[C@@H]1C[C@]1(NC(=O)[C@@H]1C[C@@H](NC(=O)c2cc(-c3ccccc3)nc3ccccc23)CN1C(=O)[C@@H](CC(=O)N1CCCCC1)C(C)(C)C)C(=O)NS(=O)(=O)C1CC1 [Compound 171, N-((3R,5S)-1-((S)-2-tert-butyl-4-oxo-4-(piperidin-1-yl)butanoyl)-5-((1R,2S)-1-(cyclopropyl-sulfonylcarbamoyl)-2-vinylcyclo-propylcarbamo-yl)pyrrolidin-3-yl)-2-phenylquinoline-4-carboxamide] | < 1000
C=C[C@@H]1C[C@]1(NC(=O)[C@@H]1C[C@@H](Oc2cc(-c3ccccc3)nc3cc(OC)ccc23)CN1C(=O)[C@@H](CC(=O)N1C[C@@H]2C[C@H]1CN2C(=O)OC(C)(C)C)C(C)(C)C)C(=O)NS(=O)(=O)C1CC1 [Compound 172, (1S,4S)-tert-butyl 5-((S)-3-((2S,4R)-2-((1R,2S)-1-(cyclopropyl-sulfonylcarbamoyl)-2-vinylcyclopropyl-carbamoyl)-4-(7-methoxy-2-phenylquinolin-4-yloxy)pyrrolidine-1-carbonyl)-4,4-dimethylpentanoyl)-2,5-diazabi-cyclo[2.2.1]heptane-2-carboxylate] | < 1000
C=C[C@@H]1C[C@]1(NC(=O)[C@@H]1C[C@@H](Oc2cc(-c3ccccc3)nc3cc(OC)ccc23)CN1C(=O)[C@@H](CC(=O)N1CC2CC1CO2)C(C)(C)C)C(=O)NS(=O)(=O)C1CC1 (stereo partly drawn) [Compound 174, (2S,4R)-1-((2S)-2-(2-(2-oxa-5-aza-bicyclo[2.2.1]heptan-5-yl)-2-oxoethyl)-3,3-dimethylbutanoyl)-N-((1R,2S)-1-(cyclopropyl-sulfonylcarbamoyl)-2-vinylcyclopropyl)-4-(7-methoxy-2-phenylquinolin-4-yloxy)pyrrolidine-2-carboxamide] | < 1000
C=C[C@@H]1C[C@]1(NC(=O)[C@@H]1C[C@@H](Oc2cc(-c3ccccc3)nc3cc(OC)ccc23)CN1C(=O)[C@@H](CC(=O)N1CCC(N(C2CC2)S(=O)(=O)c2cccc(C(F)(F)F)c2)CC1)C(C)(C)C)C(=O)NS(=O)(=O)C1CC1 [Compound 175, (2S,4R)-1-((S)-2-tert-butyl-4-(4-(N-cyclopropyl-3-(tri-fluoromethyl)phenyl-sulfonamido)piper-idin-1-yl)-4-oxobutanoyl)-N-((1R,2S)-1-(cyclopropyl-sulfonylcarbamoyl)-2-vinylcyclopropyl)-4-(7-methoxy-2-phenylquinolin-4-yloxy)pyrrolidine-2-carboxamide] | < 1000
C=C[C@@H]1C[C@]1(NC(=O)[C@@H]1C[C@@H](Oc2cc(-c3ccccc3)nc3cc(OC)ccc23)CN1C(=O)[C@@H](CC(=O)N1CCCC1C(F)(F)F)C(C)(C)C)C(=O)NS(=O)(=O)C1CC1 (stereo partly drawn) [Compound 176, (2S,4R)-1-((2S)-2-tert-butyl-4-oxo-4-(2-(trifluoro-methyl)pyrrolidin-1-yl)butanoyl)-N-((1R,2S)-1-(cyclopropylsulfonyl-carbamoyl)-2-vinylcyclopropyl)-4-(7-methoxy-2-phenylquinolin-4-yloxy)pyrrolidine-2-carboxamide] | < 1000
C=C[C@@H]1C[C@]1(NC(=O)[C@@H]1C[C@@H](NC(=O)n2c3ccccc3c3ccccc32)CN1C(=O)[C@@H](CC(=O)N1CCCCC1)C(C)(C)C)C(=O)NS(=O)(=O)C1CC1 [Compound 177, N-((3R,5S)-1-((S)-2-tert-butyl-4-oxo-4-(piperidin-1-yl)butanoyl)-5-((1R,2S)-1-(cyclopropyl-sulfonylcarbamoyl)-2-vinylcyclopropyl-carbamoyl)pyr-rolidin-3-yl)-9H-carbazole-9-carboxamide] | < 1000
C=C[C@@H]1C[C@]1(NC(=O)[C@@H]1C[C@@H](NC(=O)n2c3ccccc3c3ccccc32)CN1C(=O)[C@@H](CC(=O)N1CCCC(F)(F)C1)C(C)(C)C)C(=O)NS(=O)(=O)C1CC1 [Compound 178, N-((3R,5S)-1-((S)-2-tert-butyl-4-(3,3-difluoropiperidin-1-yl)-4-oxobutanoyl)-5-((1R,2S)-1-(cyclo-propylsulfonyl-carbamoyl)-2-vinylcyclopropyl-carbamoyl)pyrrolidin-3-yl)-9H-carbazole-9-carboxamide] | < 1000
C=C[C@@H]1C[C@]1(NC(=O)[C@@H]1C[C@@H](Oc2cc(-c3ccccn3)nc3c(Cl)c(OC)ccc23)CN1C(=O)[C@@H](CC(=O)N1CCCCC1)C(C)(C)C)C(=O)NS(=O)(=O)C1CC1 [Compound 179, (2S,4R)-1-((S)-2-tert-butyl-4-oxo-4-(piperidin-1-yl)butanoyl)-4-(8-chloro-7-methoxy-2-(pyridin-2-yl)quinolin-4-yloxy)-N-((1R,2S)-1-(cyclopropyl-sulfonylcarbamoyl)-2-vinylcyclo-propyl)pyrrolidine-2-carboxamide] | < 1000
C=C[C@@H]1C[C@]1(NC(=O)[C@@H]1C[C@@H](Oc2cc(-c3ccccn3)nc3c(Cl)c(OC)ccc23)CN1C(=O)[C@@H](CC(=O)N1CCOCC1)C(C)(C)C)C(=O)NS(=O)(=O)C1CC1 [Compound 180, (2S,4R)-1-((S)-2-tert-butyl-4-morpholino-4-oxobutanoyl)-4-(8-chloro-7-methoxy-2-(pyridin-2-yl)quinolin-4-yloxy)-N-((1R,2S)-1-(cyclopropyl-sulfonylcarbamoyl)-2-vinyl-cyclopropyl)pyr-rolidine-2-carboxamide] | < 1000
C=C[C@@H]1C[C@]1(NC(=O)[C@@H]1C[C@@H](Oc2cc(-c3ccccn3)nc3c(Cl)c(OC)ccc23)CN1C(=O)[C@@H](CC(=O)N1CCCC(F)(F)C1)C(C)(C)C)C(=O)NS(=O)(=O)C1CC1 [Compound 181, (2S,4R)-1-((S)-2-tert-butyl-4-(3,3-difluoropiperidin-1-yl)-4-oxobutanoyl)-4-(8-chloro-7-methoxy-2-(pyridin-2-yl)quinolin-4-yloxy)-N-((1R,2S)-1-(cyclopropyl-sulfonylcarbamoyl)-2-vinyl-cyclopropyl)pyr-rolidine-2-carboxamide] | < 1000
C=C[C@@H]1C[C@]1(NC(=O)[C@@H]1C[C@@H](Oc2cc(-c3ccccc3)nc3cc(OC)ccc23)CN1C(=O)[C@@H](CC(=O)N1CCC(c2ccccc2)CC1)C(C)(C)C)C(=O)NS(=O)(=O)C1CC1 [Compound 182, (2S,4R)-1-((S)-2-tert-butyl-4-oxo-4-(4-phenylpiperidin-1-yl)butanoyl)-N-((1R,2S)-1-(cyclopropylsulfonyl-carbamoyl)-2-vinylcyclopropyl)-4-(7-methoxy-2-phenylquinolin-4-yloxy)pyrrolidine-2-carboxamide] | < 1000
